The source of these data is patent publication US12571019B2, “Nisin-permeabilized microbial cell catalysts” (DANMARKS TEKNISKE UNIVERSITET, priority 2020, dated 2026).

Some results are limits rather than exact numbers.

One experiment relates to S. thermophilus CS1980. Description: Lactose hydrolysis in POM buffer by permeabilized S. thermophilus CS1980 whole-cell catalyst. The format is cell-based, Streptococcus thermophilus. Conditions: for stability of the whole-cell catalyst: permeabilized 10 minutes at 28° C. (45% (v/v) ethanol or 2.5 μg/ml nisin), hydrolysis 50° C. The method, then:
S. thermophilus CS1980 was grown in 500-ml Erlenmeyer flasks containing 200 ml of medium at 37° C. for 16 h without agitation. As inoculum, 2 ml of a 24 hour, outgrown culture was used. Cells were collected by centrifugation at 10,000 g for 10 min at 4° C., washed once with sterile POM buffer (50 mM K2HPO4/KH2PO4, 1 mM MgCl2, pH 7.4) and finally re-suspended in POM buffer to an optical density (600 nm) of 0.33, corresponding to approximately 100 mg/l dry cell weight. The cell suspension was kept on ice until use. For permeabilization, cell suspensions were dispensed into sterile tubes (1 ml per tube) and centrifuged in a microcentrifuge at top speed for 5 min at 4° C.
Samples were withdrawn at different time points, and conversion of lactose (formation of glucose and galactose) was determined by HPLC analysis.
The concentrations of sugars (carbohydrate monomers and dimers) were determined using an Ultimate 3000 high-pressure liquid chromatography system (Dionex, Sunnyvale, CA) equipped with an Aminex HPX-87H column (Bio-Rad, Hercules, CA) and a Shodex RI-101 detector (Showa Denko KK, Tokyo, Japan). The column oven temperature was set to 30° C., and the mobile phase consisted of 5 mM H2SO4 with a flowrate of 0.5 ml/min.
Hydrolysis took place at 50° C.
Hydrolysis of lactose in POM buffer (50 g/l lactose) at 50° C. was carried out at a cell concentration of approximately 100 mg/l.
Hydrolysis of lactose (50 g/1) was carried out in POM buffer at 50° C.

For the next experiment, the system named is S. thermophilus. Conditions: Somkuti et al., 1998; cited from earlier work.
The next experiment concerns S. thermophilus ST057-1. As to the kind of experiment: Hydrolysis of lactose in milk by nisin-permeabilized S. thermophilus ST057-1. The format is cell-based, Streptococcus thermophilus. How it is done:
Nisin-treated S. thermophilus ST057-1 was applied in hydrolysis of lactose in milk, at cell concentration of approximately 100 mg/l or 1 g/l. […] The starting concentration of lactose in the milk used was 52 g/l. Hydrolysis took place at 50° C.
Hydrolysis of lactose in milk (52 g/l lactose) using nisin-treated cells was carried out at a cell concentration of approximately 1 g/l. Hydrolysis took place at 50° C.

The test system of experiment [1] is S. thermophilus strains from starter culture ST057. As to the kind of experiment: Lactose hydrolysis in POM buffer by nisin-permeabilized S. thermophilus strains from starter culture ST057. The format is cell-based, Streptococcus thermophilus. How it is done:
Streptococcus thermophilus (S. thermophilus) strain CS1980 was isolated from a Danish yoghurt (same as used in example 1). Additional S. thermophilus strains were isolated from starter cultures kindly provided by Sacco Srl. Italy (ST057, ST022).
Hydrolysis was performed at 50° C.

Experiment [2] deals with L. lactis strain MG1363 ΔldhB ΔldhX Δpta ΔadhE ΔbutBA ΔaldB (RD04). Description: Alpha-acetolactate synthase activity of nisin-permeabilized L. lactis RD04 (pyruvate to alpha-acetolactate, HPLC). It is filed as cell-based, Lactococcus lactis. Conditions: 100 μg/ml nisin, 15 min 37° C.; 200 mM sodium pyruvate. How it is done: A modified L. lactis strain MG1363 lacking alpha-acetolactate decarboxylase activities was used in the present experiment. More specifically, the strain RD04 was L. lactis strain MG1363 ΔldhB ΔldhX Δpta ΔadhE ΔbutBA ΔaldB, while harboring an expression vector for overexpressing native alpha-acetolactate synthase (Als).
Alpha-acetolactate synthase activity was determined by investigating the conversion rate of pyruvate to alpha-acetolactate, using HPLC measurements of alpha-acetolactate formation.

As for `CCO` [ethanol], the “stability of the whole-cell catalyst” value in the experiment on S. thermophilus CS1980 is “compromised the stability of the whole-cell catalyst”. The “permeabilizing agent effect on measurable beta-galactosidase activity” value in the experiment with S. thermophilus was “efficient as a permeabilizing agent”.

nisin A: in the experiment on S. thermophilus CS1980 (2.5 μg/ml nisin 10 min, 100 mg/l cells, 50 g/l lactose in POM buffer, hydrolysis at 50° C., within 24 hours), the lactose hydrolyzed was 95%. The “lactose conversion compared to control and ethanol-permeabilized cells” value with S. thermophilus CS1980 (2.5 μg/ml nisin, 10 minutes 28° C., 50 g/l lactose POM buffer, 50° C., 100 mg/l cells) was “perform better than the control as well as the ethanol-permeabilized cells”. Also, in the experiment on S. thermophilus CS1980 (30 minutes vs 10 minutes permeabilization), the “effect of prolonged nisin treatment” value is “does not give better results”. The “efficiency of permeabilization at different permeabilization temperatures” value with S. thermophilus CS1980 (permeabilization at 28° C. and 37° C., 2.5 μg/ml nisin 10 min) is on record as “equally efficient”; in the experiment on S. thermophilus CS1980 (permeabilization temperatures 28-50° C., 2.5 μg/ml nisin), “equally efficient”. Also, the “cell stability after permeabilization” value in the experiment on S. thermophilus CS1980 (permeabilization at 55° C., 2.5 μg/ml nisin) is “seemed to be compromised”. In addition, the “stability of the whole-cell catalyst” value with S. thermophilus CS1980 is listed as “higher stability”. The “time to reach 80% hydrolysis” value in the experiment with S. thermophilus ST057-1 (milk (52 g/l lactose), 100 mg/l whole-cell catalyst, 50° C.) was “more than 12 hours”; in experiment [1] (POM buffer, 100 mg/l whole-cell catalyst, 50° C.), no more than 4 h. Further, in the experiment on S. thermophilus ST057-1 (milk, 1 g/l vs 100 mg/l cells, 50° C.), the “conversion rate on increasing the whole-cell catalyst concentration” value was “significantly increased”. In addition, in the experiment with S. thermophilus ST057-1 (permeabilization 28° C. vs 37° C., 1 g/l cells, hydrolysis 50° C.), the “lactose conversion in milk at different permeabilization temperature” value is recorded as “performed equally well”. Further, the “conversion of the lactose” value in experiment [1] (two strains from starter culture ST057, 2.5 μg/ml nisin 10 min 28° C., hydrolysis 50° C., in less than half of the time of the other strains) is on record as greater than 90%. For the same compound, the “conversion of pyruvate to alpha-acetolactate compared to non-permeabilized cells” value in experiment [2] is “performed much better than non-permeabilized cells”.
